Reference: ChEMBL document CHEMBL5260802, “Discovery of Novel Allosteric HCV NS5B Inhibitors. 2. Lactam-Containing Thiophene Carboxylates” (ACS Med Chem Lett, 2017)

How the values were obtained:
[1] = Protein binding in rat plasma at 1 uM incubated for 6 hrs by LC-MS/MS based rapid equilibrium dialysis method; format: ADME, cell-free; conditions: read-out: PPB (converted)
[2] = Unbound AUC (0 to infinity) in Sprague-Dawley rat at 1 mg/kg,iv and measured after 72 hrs by LC/MS/MS analysis; format: ADME, organism-based; conditions: in vivo
[3] = AUC (0 to infinity) in Sprague-Dawley rat at 3 mg/kg,po and measured after 72 hrs by LC/MS/MS analysis; format: ADME, organism-based; set-up: time 72 hrs, dose 3 mg/kg, route po; conditions: in vivo
[4] = Cmax in Sprague-Dawley rat at 3 mg/kg,po and measured after 72 hrs by LC/MS/MS analysis; format: ADME, organism-based; set-up: time 72 hrs, dose 3 mg/kg, route po; conditions: in vivo
[5] = Clearance in Sprague-Dawley rat at 1 mg/kg,iv and measured after 72 hrs by LC/MS/MS analysis; format: ADME, organism-based; conditions: in vivo
[6] = Cytotoxicity against human Huh-7 cells transfected with HCV subgenomic replicon for NS5B polymerase assessed as reduction in cell viability; format: toxicity, cell-based
[7] = Half life in Sprague-Dawley rat at 1 mg/kg,iv and measured after 72 hrs by LC/MS/MS analysis; format: ADME, organism-based; conditions: in vivo
[8] = Unbound clearance in Sprague-Dawley rat at 1 mg/kg,iv and measured after 72 hrs by LC/MS/MS analysis; format: ADME, organism-based; conditions: in vivo
Hepatitis C virus [9] = assay: Antiviral activity against Hepatitis C virus subtype 1b infected in Huh-7 cells transfected with HCV subgenomic replicon for NS5B polymerase assessed as inhibition of viral replication measured upto 96 hrs in presence of 40% of human serum by luciferase reporter gene assay; format: functional, organism-based, Hepacivirus hominis; conditions: Huh-7, 96 h
[10] = Oral bioavailability in Sprague-Dawley rat at 3 mg/kg and measured after 72 hrs by LC/MS/MS analysis; format: ADME, organism-based; conditions: in vivo
Hepatitis C virus [11] = assay: Antiviral activity against Hepatitis C virus subtype 1b infected in Huh-7 cells transfected with HCV subgenomic replicon for NS5B polymerase assessed as inhibition of viral replication measured upto 96 hrs by luciferase reporter gene assay; format: functional, organism-based, Hepacivirus hominis; conditions: for IC50: Huh-7, 96 h; for IC90: Huh-7, time <= 96 hrs
[12] = Half life in Sprague-Dawley rat at 3 mg/kg,po and measured after 72 hrs by LC/MS/MS analysis; format: ADME, organism-based; conditions: in vivo
[13] = Unbound AUC (0 to infinity) in Sprague-Dawley rat at 3 mg/kg,po and measured after 72 hrs by LC/MS/MS analysis; format: ADME, organism-based; conditions: in vivo
[14] = AUC (0 to infinity) in Sprague-Dawley rat at 1 mg/kg,iv and measured after 72 hrs by LC/MS/MS analysis; format: ADME, organism-based; set-up: time 72 hrs, dose 1 mg/kg, route iv; conditions: in vivo; for AUC(0-inf): Sprague-Dawley
[15] = Volume of distribution at steady state in Sprague-Dawley rat at 1 mg/kg,iv and measured after 72 hrs by LC/MS/MS analysis; format: ADME, organism-based; conditions: in vivo, read-out: Vdss
PXR [16] = target: T1, PXR (Homo sapiens, UniProt O75469); assay: Activation of human PXR expressed in human DPX2 co-expressing luciferase reporter gene assessed as fold increase incubated for 24 hrs by luciferase assay relative to control; format: cell-based; conditions: DPX2 cells expressing human PXR and luciferase reporter gene, read-out: FC
T1 sequence (O75469 whole entry): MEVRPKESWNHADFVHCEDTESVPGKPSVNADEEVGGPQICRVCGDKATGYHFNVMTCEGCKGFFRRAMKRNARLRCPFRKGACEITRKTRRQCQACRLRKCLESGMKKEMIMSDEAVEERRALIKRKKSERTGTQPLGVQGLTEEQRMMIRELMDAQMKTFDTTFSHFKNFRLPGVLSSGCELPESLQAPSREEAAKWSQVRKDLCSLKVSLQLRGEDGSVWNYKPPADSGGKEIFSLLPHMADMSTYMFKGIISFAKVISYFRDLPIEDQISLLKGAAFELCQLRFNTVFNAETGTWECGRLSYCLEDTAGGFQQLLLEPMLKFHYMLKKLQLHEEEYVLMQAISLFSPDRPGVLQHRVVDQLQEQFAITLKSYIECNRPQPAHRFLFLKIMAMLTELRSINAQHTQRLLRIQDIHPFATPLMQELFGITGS

[17] = Volume of distribution at steady state in Sprague-Dawley rat at 0.5 mg/kg,iv and measured after 72 hrs by LC/MS/MS analysis; format: ADME, organism-based; conditions: in vivo, read-out: Vdss
[18] = Unbound AUC (0 to infinity) in Sprague-Dawley rat at 0.5 mg/kg,iv and measured after 72 hrs by LC/MS/MS analysis; format: ADME, organism-based; conditions: in vivo
[19] = AUC (0 to infinity) in Sprague-Dawley rat at 0.5 mg/kg,iv and measured after 72 hrs by LC/MS/MS analysis; format: ADME, organism-based; set-up: time 72 hrs, dose 0.5 mg/kg, route iv; conditions: in vivo
[20] = target: T2, Nuclear receptor subfamily 1 group I member 2 (Homo sapiens, UniProt O75469); assay: Activation of human PXR expressed in human DPX2 co-expressing luciferase reporter gene incubated for 24 hrs by luciferase assay; format: cell-based
T2 sequence (O75469 whole entry): T1 sequence (O75469 whole entry)

[21] = Microsomal stability in human liver microsomes assessed as parent compound remaining at 1 uM and measured after 30 mins in presence of NADPH by LC/MS/MS analysis; format: ADME, Microsome; conditions: 0.5 h
[22] = Cmax in Sprague-Dawley rat at 1.5 mg/kg,po and measured after 72 hrs by LC/MS/MS analysis; format: ADME, organism-based; set-up: dose 1.5 mg/kg, time 72 hrs, route po; conditions: in vivo
PXR [23] = target: T1, PXR; assay: Activation of human PXR expressed in human DPX2 co-expressing luciferase reporter gene assessed as maximum efficacy incubated for 24 hrs by luciferase assay relative to control; format: cell-based; conditions: DPX2 cells expressing human PXR and luciferase reporter gene
[24] = Half life in Sprague-Dawley rat at 1.5 mg/kg,po and measured after 72 hrs by LC/MS/MS analysis; format: ADME, organism-based; conditions: in vivo
Cytochrome P450 3A4 = Cytochrome P450 3A4 (Homo sapiens, UniProt P08684); assay: Inhibition of CYP3A4 in human liver microsomes incubated for 10 mins in presence of NADPH by LC/MS/MS analysis; format: ADME, Microsome
[25] = Microsomal stability in rat liver microsomes assessed as parent compound remaining at 1 uM and measured after 30 mins in presence of NADPH by LC/MS/MS analysis; format: ADME, Microsome; conditions: 0.5 h
Cytochrome P450 2C9 = Cytochrome P450 2C9 (Homo sapiens, UniProt P11712); assay: Inhibition of CYP2C9 in human liver microsomes incubated for 10 mins in presence of NADPH by LC/MS/MS analysis; format: ADME, Microsome
[26] = Unbound clearance in Sprague-Dawley rat at 0.5 mg/kg,iv and measured after 72 hrs by LC/MS/MS analysis; format: ADME, organism-based; conditions: in vivo
[27] = Half life in Sprague-Dawley rat at 0.5 mg/kg,iv and measured after 72 hrs by LC/MS/MS analysis; format: ADME, organism-based; conditions: in vivo
[28] = Protein binding in human plasma at 1 uM incubated for 6 hrs by LC-MS/MS based rapid equilibrium dialysis method; format: ADME, cell-free; conditions: read-out: PPB
[29] = AUC (0 to infinity) in Sprague-Dawley rat at 1.5 mg/kg,po and measured after 72 hrs by LC/MS/MS analysis; format: ADME, organism-based; set-up: dose 1.5 mg/kg, time 72 hrs, route po; conditions: in vivo
Cytochrome P450 2D6 = Cytochrome P450 2D6 (Homo sapiens, UniProt P10635); assay: Inhibition of CYP2D6 in human liver microsomes incubated for 10 mins in presence of NADPH by LC/MS/MS analysis; format: ADME, Microsome
[30] = Oral bioavailability in Sprague-Dawley rat at 1.5 mg/kg and measured after 72 hrs by LC/MS/MS analysis; format: ADME, organism-based; conditions: in vivo
[31] = Unbound AUC (0 to infinity) in Sprague-Dawley rat at 1.5 mg/kg,po and measured after 72 hrs by LC/MS/MS analysis; format: ADME, organism-based; conditions: in vivo

Chain of Cytochrome P450 2D6 (P10635 whole entry): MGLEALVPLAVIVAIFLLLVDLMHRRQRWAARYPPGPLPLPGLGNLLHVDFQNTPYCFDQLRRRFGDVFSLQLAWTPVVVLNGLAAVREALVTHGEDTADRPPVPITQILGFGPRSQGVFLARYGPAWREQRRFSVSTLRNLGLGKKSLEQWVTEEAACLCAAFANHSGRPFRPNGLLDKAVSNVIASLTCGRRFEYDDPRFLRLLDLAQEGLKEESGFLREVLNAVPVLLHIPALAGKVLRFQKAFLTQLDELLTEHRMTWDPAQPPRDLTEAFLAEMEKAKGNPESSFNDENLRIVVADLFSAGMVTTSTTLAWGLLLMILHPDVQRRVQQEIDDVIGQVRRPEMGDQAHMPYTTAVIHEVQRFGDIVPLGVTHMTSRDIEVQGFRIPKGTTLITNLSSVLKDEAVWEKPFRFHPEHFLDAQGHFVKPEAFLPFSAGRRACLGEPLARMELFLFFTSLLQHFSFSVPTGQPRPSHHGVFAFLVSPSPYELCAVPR
Chain of Cytochrome P450 2C9 (P11712 whole entry): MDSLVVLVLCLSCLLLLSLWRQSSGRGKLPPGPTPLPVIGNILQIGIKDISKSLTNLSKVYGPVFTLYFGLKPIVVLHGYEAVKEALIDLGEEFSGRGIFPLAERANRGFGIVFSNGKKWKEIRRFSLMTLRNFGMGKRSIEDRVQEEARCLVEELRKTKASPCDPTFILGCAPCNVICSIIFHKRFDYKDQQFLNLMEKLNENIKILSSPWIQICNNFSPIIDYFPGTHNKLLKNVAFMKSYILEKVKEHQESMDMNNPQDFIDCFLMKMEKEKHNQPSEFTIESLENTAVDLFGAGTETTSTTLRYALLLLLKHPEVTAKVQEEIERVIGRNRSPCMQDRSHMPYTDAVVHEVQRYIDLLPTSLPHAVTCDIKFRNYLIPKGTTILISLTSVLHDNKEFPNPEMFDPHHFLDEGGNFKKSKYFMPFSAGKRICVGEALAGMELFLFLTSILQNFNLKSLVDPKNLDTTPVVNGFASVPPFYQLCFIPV
Chain of Cytochrome P450 3A4 (P08684 whole entry): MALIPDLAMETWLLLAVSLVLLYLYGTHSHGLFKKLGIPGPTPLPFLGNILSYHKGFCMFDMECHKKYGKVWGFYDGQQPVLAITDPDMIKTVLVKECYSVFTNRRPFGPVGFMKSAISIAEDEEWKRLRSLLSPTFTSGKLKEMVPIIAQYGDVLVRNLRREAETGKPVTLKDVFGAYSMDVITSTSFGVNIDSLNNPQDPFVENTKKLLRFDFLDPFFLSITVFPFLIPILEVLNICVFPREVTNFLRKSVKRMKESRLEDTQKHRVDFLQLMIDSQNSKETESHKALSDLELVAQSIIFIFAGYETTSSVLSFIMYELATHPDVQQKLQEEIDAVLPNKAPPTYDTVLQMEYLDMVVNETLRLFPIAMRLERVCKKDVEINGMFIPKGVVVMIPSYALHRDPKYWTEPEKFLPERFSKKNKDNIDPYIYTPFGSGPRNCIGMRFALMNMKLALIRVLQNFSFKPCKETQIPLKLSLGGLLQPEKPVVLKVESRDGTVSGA

Row | fraction unbound at 6 h, 1 µM [1] | fAUC [2] | AUC(0-inf) [3] | Cmax [4] | half-life [7] | CL free [8] | IC50 (Hepatitis C virus [9]) | bioavailability [10] | IC50 (Hepatitis C virus [11]) | IC90 (Hepatitis C virus [11]) | fAUC [13] | Vd [15] | EC50 [20] | Emax at 24 h (PXR [23]) | SMILES | CC50 [6] | further results
1 | 0.019 | 4.35 ng·h/mL | 176 ng·h/mL | 119 ng/mL | 3.07 h | 3880 mL/min/kg | 40 nM | 26% | 4 nM | 13 nM | 3.34 ng·h/mL | 6.04 L/kg |  |  | CN1CC[C@H](N(c2cc(C#CC(C)(C)C)sc2C(=O)O)C(=O)[C@H]2CC[C@H](C)CC2)C1=O | > 20000 nM | clearance [5]: 73.7 mL/min/kg; half-life [12]: 4.66 h; AUC(0-inf) [14]: 229 ng·h/mL
2 |  |  |  |  |  |  | 49 nM |  | 5 nM | 24 nM |  |  |  |  | C[C@@H](C(=O)N(C)C)N(c1cc(C#CC(C)(C)C)sc1C(=O)O)C(=O)[C@H]1CC[C@H](C)CC1 | > 20000 nM | 
3 | 0.002 | 3.48 ng·h/mL | 3320 ng·h/mL | 1310 ng/mL | 2.73 h | 11300 mL/min/kg | 140 nM | 64% | 16 nM | 96 nM | 6.64 ng·h/mL | 1.93 L/kg |  |  | CN1CC[C@@H](N(c2cc(C#CC(C)(C)C)sc2C(=O)O)C(=O)[C@H]2CC[C@H](C)CC2)C1=O | > 20000 nM | AUC ([14]; 72 h): 1740 ng·h/mL
4 |  |  |  |  |  |  | 340 nM |  | 23 nM | 100 nM |  |  |  |  | CC(C)(C)C#Cc1cc(N(CC(=O)N2CCOCC2)C(=O)[C@H]2CC[C@H](C)CC2)c(C(=O)O)s1 | > 20000 nM | 
5 | 0.011 |  |  |  |  |  | 24 nM |  | 3 nM | 8 nM |  |  | 17300 nM | 63% | CN1CCC[C@H](N(c2cc(C#CC(C)(C)C)sc2C(=O)O)C(=O)[C@H]2CC[C@H](C)CC2)C1=O | > 20000 nM | fold induction at 24 h (PXR [16]): 15.1; Vd [17]: 1.17 L/kg; fAUC [18]: 96.5 ng·h/mL; AUC [19]: 8770 ng·h/mL; Stability [21]: Stable; Cmax [22]: 751 ng/mL; half-life [24]: 4.8 h; IC50 (Cytochrome P450 3A4): > 30000 nM; Stability [25]: Stable; IC50 (Cytochrome P450 2C9): > 30000 nM; CL free [26]: 755 mL/min/kg; half-life [27]: 6.68 h; fraction unbound at 6 h, 1 µM [28]: 0.01; AUC(0-inf) [29]: 6390 ng·h/mL; IC50 (Cytochrome P450 2D6): > 30000 nM; bioavailability [30]: 24%; fAUC [31]: 70.3 ng·h/mL
6 | 0.0004 |  |  |  |  |  | 105 nM |  | 10 nM | 44 nM |  |  | 20400 nM | 28% | CN1CCC[C@@H](N(c2cc(C#CC(C)(C)C)sc2C(=O)O)C(=O)[C@H]2CC[C@H](C)CC2)C1=O | > 20000 nM | fold induction at 24 h (PXR [16]): 7.3; Vd [17]: 0.221 L/kg; fAUC [18]: 10.2 ng·h/mL; AUC [19]: 25400 ng·h/mL; Cmax [22]: 2540 ng/mL; half-life [24]: 6.13 h; CL free [26]: 2980 mL/min/kg; half-life [27]: 5.57 h; AUC(0-inf) [29]: 24400 ng·h/mL; bioavailability [30]: 32%; fAUC [31]: 9.76 ng·h/mL
7 |  |  |  |  |  |  | 1320 nM |  | 110 nM | 610 nM |  |  |  |  | C[C@H](C(=O)N(C)C)N(c1cc(C#CC(C)(C)C)sc1C(=O)O)C(=O)[C@H]1CC[C@H](C)CC1 | > 20000 nM | 
8 | 0.002 | 2.26 ng·h/mL | 3530 ng·h/mL | 589 ng/mL | 2.79 h | 7950 mL/min/kg | 156 nM | 122% | 29 nM | 63 nM | 7.06 ng·h/mL | 1.05 L/kg | > 30000 nM | 16% | CN1CCCC[C@@H](N(c2cc(C#CC(C)(C)C)sc2C(=O)O)C(=O)[C@H]2CC[C@H](C)CC2)C1=O | > 20000 nM | clearance [5]: 15.9 mL/min/kg; half-life [12]: 4.31 h; AUC(0-inf) [14]: 1130 ng·h/mL

Row | SMILES | fraction unbound at 6 h, 1 µM [1] | fAUC [2] | AUC(0-inf) [3] | Cmax [4] | half-life [7] | CL free [8] | IC50 (Hepatitis C virus [9]) | bioavailability [10] | IC50 (Hepatitis C virus [11]) | IC90 (Hepatitis C virus [11]) | fAUC [13] | Vd [15] | EC50 [20] | Emax at 24 h (PXR [23]) | CC50 [6] | further results
9 | CC(C)(C)C#Cc1cc(N(C(=O)[C@H]2CC[C@H](C)CC2)[C@H]2CC[C@H](O)CC2)c(C(=O)O)s1 [LOMIBUVIR] |  |  |  |  |  |  | 203 nM |  | 25 nM | 97 nM |  |  |  |  | > 20000 nM | 
